According to patent publication EP0054589B1, “Organic phosphoric acid ester derivatives, a process for preparing the same and insecticidal, miticidal or nematocidal compositions containing the same” (priority 1980, dated 1982):

Columns and labels:
[1] = tested on: Beet; test: Phytotoxicity on various crops; assay type: in vivo; set-up: key: Symbol — indicates that no toxicity was observed; conditions: 500 ppm sprayed; checked visually after 10 days
Method: (§1) An emulsifiable concentrate prepared as described in Formulation Example 2 was diluted with water to a concentration of 500 ppm based on the effective ingredient and sprayed sufficiently using a spray-gun onto various test plants. The plants were kept in a green house. After 10 days from the application phytotoxicity was checked visually. The test was replicated 3 times for each compound.

[2] = tested on: Kidney Bean; test: Phytotoxicity on various crops; assay type: in vivo; set-up: key: Symbol — indicates that no toxicity was observed; conditions: 500 ppm sprayed; checked visually after 10 days
Method: as §1

[3] = tested on: Tomato; test: Phytotoxicity on various crops; assay type: in vivo; set-up: key: Symbol — indicates that no toxicity was observed; conditions: 500 ppm sprayed; checked visually after 10 days
Method: as §1

[4] = tested on: Cabbage; test: Phytotoxicity on various crops; assay type: in vivo; set-up: key: Symbol — indicates that no toxicity was observed; conditions: 500 ppm sprayed; checked visually after 10 days
Method: as §1

[5] = tested on: Cucumber; test: Phytotoxicity on various crops; assay type: in vivo; set-up: key: Symbol — indicates that no toxicity was observed; conditions: 500 ppm sprayed; checked visually after 10 days
Method: as §1

[6] = tested on: Cotton; test: Phytotoxicity on various crops; assay type: in vivo; set-up: key: Symbol — indicates that no toxicity was observed; conditions: 500 ppm sprayed; checked visually after 10 days
Method: as §1

[7] = tested on: Rice; test: Phytotoxicity on various crops; assay type: in vivo; set-up: key: Symbol — indicates that no toxicity was observed; conditions: 500 ppm sprayed; checked visually after 10 days
Method: as §1

[8] = tested on: Tea; test: Phytotoxicity on various crops; assay type: in vivo; set-up: key: Symbol — indicates that no toxicity was observed; conditions: 500 ppm sprayed; checked visually after 10 days
Method: as §1

[9] = tested on: Green Pepper; test: Phytotoxicity on various crops; assay type: in vivo; set-up: key: Symbol — indicates that no toxicity was observed; conditions: 500 ppm sprayed; checked visually after 10 days
Method: as §1

[10] = tested on: Apple; test: Phytotoxicity on various crops; assay type: in vivo; set-up: key: Symbol — indicates that no toxicity was observed; conditions: 500 ppm sprayed; checked visually after 10 days
Method: as §1

[11] = tested on: egg plant; test: Phytotoxicity on various crops; assay type: in vivo; set-up: key: Symbol — indicates that no toxicity was observed; conditions: 500 ppm sprayed; checked visually after 10 days
Method: as §1

[12] = tested on: rice stem borer; test: Insecticidal effect on rice stem borer, 3rd-instar larvae (rice seedling dip); assay type: in vivo, Chilo suppressalis; conditions: after 72 hours, 25°C
Method: (A) A wettable powder prepared as described in Formulation Example 5 was diluted with water to a predetermined concentration. Rice seedlings were dipped into the dilute solution and placed in a 60 ml volume cup made of vinyl chloride resin, and 10 3rd-instar larvae of rice stem borer were put in each cup. The cups were capped and maintained at 25°C.
(B) A wettable powder prepared as described in Formulation Example 7 was diluted with water to a predetermined concentration. Rice seedlings were dipped into the dilute solution and placed in a 60 ml volume cup made of vinyl chloride resin, and 10 3rd-instar larvae of rice stem borer were put in each cup. The cups were capped and maintained at 25°C.

[13] = tested on: tobacco cutworm; test: Insecticidal effect on tobacco cutworm (cabbage leaf dip); assay type: in vivo, Prodenia litura; conditions: after 48 hours, 25°C
Method: (A) An emulsifiable concentrate prepared as described in Formulation Example 1 was diluted with water to a predetermined concentration and then cabbage leaves were dipped into the dilute solution and dried in air and placed in a 60 ml volume cup made of vinyl chloride resin. 3rd-instar larvae of tobacco cutworm were put in each cup and maintained at 25°C. After 48 hours, percent mortality was assessed. The test was replicated 3 times for each compound using 30 insects in each test.
(B) An emulsifiable concentrate prepared as described in Formulation Example 3 was diluted with water to a predetermined concentration and then cabbage leaves were dipped into the dilute solution and dried in air and placed in a 60 ml volume cup made of vinyl chloride resin. 3rd-instar larvae of tobacco cutworm were put in each cup and maintained at 25°C. After 48 hours, percent mortality was assessed. The test was replicated 3 times for each compound using 30 insects in each test.

[14] = tested on: tobacco cutworm; test: Long-lasting insecticidal effect on tobacco cutworm (sprayed cabbage plantlet); assay type: in vivo, Prodenia litura; conditions: Table 5, concentration 500 (unit not given), mortality after 48 hours
Method: (§2) (A) An emulsifiable concentrate prepared as described in Formulation Example 2 was diluted with water to a predetermined concentration and sprayed onto a cabbage plantlet in a flower pot of 15 cm in diameter using a spray-gun sufficiently and the tests plants were placed in a green house. The leaves of the plants were cut off on the 3rd, 5th, 7th, 10th and 15th day and placed in a 60 ml volume cup and 3rd-instar larvae of tobacco cutworm were put in each cup. The cups were kept in an incubator (25°C). After 48 hours, percent mortality was assessed. The tests was replicated 3 times for each compound using 30 insects in each test.
as §2, with “(B) An” for “(A) An”, “Example 3” for “Example 2”, “and 1 5th” for “and 15th”

[15] = Table 1, 500 ppm, wettable powder as Formulation Example 5
[16] = Table 3, 500 ppm, emulsifiable concentrate as Formulation Example 1
[17] = Table 1, 100 ppm, wettable powder as Formulation Example 5
[18] = Table 2, 100 ppm, wettable powder as Formulation Example 7
[19] = Table 4, 100 ppm, emulsifiable concentrate as Formulation Example 3

Compound | Phytotoxicity: Beet [1] | Phytotoxicity: Kidney Bean [2] | Phytotoxicity: Tomato [3] | Phytotoxicity: Cabbage [4] | Phytotoxicity: Cucumber [5] | Phytotoxicity: Cotton [6] | Phytotoxicity: Rice [7] | Phytotoxicity: Tea [8] | Phytotoxicity: Green Pepper [9] | Phytotoxicity: Apple [10] | Phytotoxicity: Egg Plant [11] | Percent Mortality (%) [12, 15] [%] | Percent Mortality (%) [13, 16] [%] | also measured
CCCSP(=O)(Oc1ccc2c(c1)OC(C)=CC2(C)C)OC(C)CC (stereo not drawn) [compound 15] | — | — | — | — | — | — | — | — | — | — | — | 100 | 100 | 
COP(=O)(OC)C(O)C(Cl)(Cl)Cl (stereo not drawn) [Dipterex, dimethyl 2,2,2-trichloro-1-hydroxyethyl phosphonate, reference compound] |  |  |  |  |  |  |  |  |  |  |  | 100 |  | Percent Mortality (%) [12, 17]: 100%
CCCSP(=O)(OCC)Oc1ccc2c(c1)OC(CC)=C(C)C2(CC)CC (stereo not drawn) [Compound No. 21, O-ethyl-S-propyl-O-(2,4,4-triethyl-3-methyl-1,2-benzopyran-7-yl)phosphorothioate] | — | — | — | — | — | — | — | — | — | — | — | 100 |  | Percent Mortality (%) [12, 17]: 100%; Percent Mortality (%) [12, 18]: 100%; Percent Mortality (%) [13, 19]: 100%
COP(=S)(OC)Oc1ccc([N+](=O)[O-])c(C)c1 [Sumithion, dimethyl(3-methyl-4-nitrophenyl)thiophosphate, reference compound] |  |  |  |  |  |  |  |  |  |  |  |  |  | Percent Mortality (%) ([12]; Table 2, concentration not given): 100%
CCCCOP(=O)(Oc1ccc2c(c1)OC(C)=CC2(C)C)SCCC (stereo not drawn) [compound 4] | — | — | — | — | — | — | — | — | — | — | — | 100 | 100 | 
CCOP(=S)(Oc1cccc2c1C(C)=CC(C)(C)O2)SC(C)CC (stereo not drawn) [Compound No. 27] | — | — | — | — | — | — | — | — | — | — | — |  |  | Percent Mortality (%) [12, 18]: 100%; Percent Mortality (%) [13, 19]: 100%
O-isopropyl-S-isopropyl-O-(2,4,4-trimethyl-1,4-benzopyran-7-yl)phosphorothioate [Compound No. 7] | — | — | — | — | — | — | — | — | — | — | — | 100 | 100 | 
CCOP(=O)(Oc1ccc2c(c1)OC(C)=CC2(C)C)SCC (stereo not drawn) [Compound No. 8] | — | — | — | — | — | — | — | — | — | — | — | 100 | 100 | 
CCCOP(=O)(Oc1ccc2c(c1)OC(C)=CC2(C)C)SCCC (stereo not drawn) [Compound No. 3] | — | — | — | — | — | — | — | — | — | — | — | 100 | 100 | 
COP(=O)(NC(C)=O)SC (stereo not drawn) [Orthene, O,S-dimethyl acetylphosphoramidothioate, reference compound] |  |  |  |  |  |  |  |  |  |  |  |  | 90.0 | 
CNC(=O)ON=C(C)SC [Lannate, S-methyl N-(methylcarbamoyloxy)thioacetimidate, reference compound] |  |  |  |  |  |  |  |  |  |  |  |  |  | Percent Mortality After Application 3rd Day ([14]; leaves cut on 3rd day): 80%; Percent Mortality After Application 5th Day ([14]; leaves cut on 5th day): 30%; Percent Mortality After Application 7th Day ([14]; leaves cut on 7th day): 7%; Percent Mortality After Application 10th Day ([14]; leaves cut on 10th day): 0%; Percent Mortality After Application 15th Day ([14]; leaves cut on 15th day): 0%
